# Laboratory results taken from patent publication US6534524B1, “Indazole compounds and pharmaceutical compositions for inhibiting protein kinases, and methods for their use” (Agouron Pharmaceuticals, Inc., priority 1999, dated 2003).
# Like-named read-outs stand apart in the source and are kept apart here.
# Assays:
# human CHK1 (FL-CHK1) = biological target: T1, human CHK1 (FL-CHK1) (Homo sapiens, UniProt O14757); assay: CHK1 assay (coupled spectrophotometric, Syntide-2); assay type: biochemical; details: Table 3; read-out: CHK-1 Ki
# T1 construct: C-terminally His-tagged full-length human CHK1 (FL-CHK1); made in house; host or cells: baculovirus/insect cell system
# T1 sequence (O14757 1-476): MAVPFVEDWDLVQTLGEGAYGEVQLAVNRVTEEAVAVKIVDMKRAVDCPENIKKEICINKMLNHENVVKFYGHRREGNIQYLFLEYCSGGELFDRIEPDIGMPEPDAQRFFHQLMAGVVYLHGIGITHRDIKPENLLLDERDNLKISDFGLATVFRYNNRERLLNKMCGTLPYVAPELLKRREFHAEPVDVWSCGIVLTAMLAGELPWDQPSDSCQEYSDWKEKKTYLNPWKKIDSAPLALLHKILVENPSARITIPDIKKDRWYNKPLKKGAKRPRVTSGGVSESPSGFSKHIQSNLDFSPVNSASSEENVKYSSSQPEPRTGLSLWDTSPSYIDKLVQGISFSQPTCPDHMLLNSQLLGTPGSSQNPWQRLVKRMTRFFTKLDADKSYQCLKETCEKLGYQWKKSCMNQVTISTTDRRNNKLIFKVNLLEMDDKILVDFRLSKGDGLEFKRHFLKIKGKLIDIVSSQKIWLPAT
# How it was run: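 Full-length C-terminally His-tagged human CHK1 expressed in baculovirus/insect cells, used at 10 nM with Syntide-2 substrate. ADP formation coupled via PK/LDH to NADH oxidation, followed as absorbance decrease at 340 nm. Ki from initial rates at varying compound concentrations.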
# CDK2/Cyclin A = CDK2/Cyclin A (Homo sapiens, UniProt P24941); assay: CDK2/Cyclin A assay ([32P]ATP, Rb fragment); assay type: biochemical; details: Table 3
# CDK1 = CDK1 (Homo sapiens, UniProt P06493); assay: CDK1 inhibition; assay type: biochemical; details: Table 3
# CDK4/Cyclin D3 complex = CDK4/Cyclin D3 complex (Homo sapiens, UniProt P11802); assay: CDK4/Cyclin D assay ([32P]ATP, Rb fragment)
# [1] = Human liver microsome (HLM) assay; assay type: in vitro ADME; details: human liver microsomes, 5 μM test compound
# How it was run: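 Compound metabolism in human liver microsomes measured in triplicate. Samples at 0 and 2 h centrifuged at 14000 g for 10 min and analysed by LC-MS.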
# [2] = tested on: retinal vasculature (VEGF dependent); assay: In vivo assay of retinal vascular development in neonatal rats; details: P8 model; intravitreal; 5 mg/ml; vehicle PEG/water 50:50
# [3] = biological target: unphosphorylated VEGF-R2Δ50 (FLVK) (Homo sapiens, UniProt P35968, DEL940-989/E990V); assay: VEGF-R2 coupled spectrophotometric assay, unphosphorylated VEGF-R2Δ50 (FLVK); details: for Ki: FLVK Ki, Table 1
# [4] = Determination of inhibitor concentration in mouse plasma after intraperitoneal and oral dosing; assay type: in vivo
# How it was run: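 Mice dosed intraperitoneally or orally; blood taken by ocular bleed at 0.5, 1 and 4 h and by intracardiac puncture at 7 h. Plasma extracted with ethyl acetate after internal standard and NaOH addition, analysed by HPLC or LC-MS against a mouse-plasma standard curve.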
# human FGF-R1 = human FGF-R1 (Homo sapiens, UniProt P11362, C488A/C584S/L457V); assay: FGF-R spectrophotometric assay
# [5] = tested on: human umbilical vein endothelial cells (HUVEC); assay: HUVEC proliferation assay (VEGF-stimulated, MTT); assay type: cell-based; details: Homo sapiens, HUVEC, + albumin; read-out: HUVEC + albumin IC50
# [6] = tested on: VEGF dependent retinal neovascularization; assay: In vivo assay of retinal vascular development in neonatal rat model of retinopathy of prematurity; details: ROP model; intravitreal; 1 mg/ml; vehicle PEG/water 70:30
# Experimental: In Vivo Assay of Retinal Vascular Development in Neonatal Rat Model of Retinopathy of Prematurity A second model of VEGF dependent retinal neovascularization was employed to evaluate the activities of this series of compounds. […] This alternating cycle of hyperoxia followed by hypoxia is repeated 7 times after which the animals are removed to room air (P14). Compounds are administered via intravitreal injection upon removal to room air and the animals are sacrificed 6 days later (P20). The isolated retinas are then isolated, stained mounted and analyzed as detail above in the development model. The effectiveness was also graded as is described for the development model.
# [7] = IP, 25 mg/kg, vehicle PEG400:H2O pH 2.3 30:70
# [8] = PO, 10 mg/kg, vehicle PEG400:H2O pH 2.3 30:70
# [9] = PO, 25 mg/kg, vehicle PEG400:H2O pH 2.3 30:70
# [10] = PO, 50 mg/kg, vehicle PEG400:H2O pH 2.3 30:70
# [11] = female, IP, 25 mg/kg, vehicle PEG400:H2O pH 2.3 30:70, read-out: Cmin (7 hr conc.)
# [12] = female, PO, 25 mg/kg, vehicle PEG400:H2O pH 2.3 30:70, read-out: Cmin (7 hr conc.)
# [13] = female, PO, 50 mg/kg, vehicle PEG400:H2O pH 2.3 30:70, read-out: Cmin (7 hr conc.)
# [14] = IP, 25 mg/kg, vehicle PEG400:H2O pH 2.3 60:40
# [15] = PO, 50 mg/kg, vehicle PEG400:H2O pH 2.3 60:40
# [16] = female, IP, 25 mg/kg, vehicle PEG400:H2O pH 2.3 30:70
# [17] = female, PO, 50 mg/kg, vehicle PEG400:H2O pH 2.3 30:70
# Chain of CDK4/Cyclin D3 complex (P11802 whole entry, the tested form may be a part): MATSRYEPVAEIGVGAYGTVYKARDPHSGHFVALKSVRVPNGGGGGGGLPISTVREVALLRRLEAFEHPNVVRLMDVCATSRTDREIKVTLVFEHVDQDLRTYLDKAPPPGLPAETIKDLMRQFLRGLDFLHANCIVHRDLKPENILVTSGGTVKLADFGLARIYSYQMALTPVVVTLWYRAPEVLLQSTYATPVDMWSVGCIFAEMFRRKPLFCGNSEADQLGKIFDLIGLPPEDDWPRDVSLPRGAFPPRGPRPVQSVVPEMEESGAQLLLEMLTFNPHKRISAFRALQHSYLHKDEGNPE
# Chain of CDK4/Cyclin D3 complex (P30281 whole entry partner, the tested form may be a part): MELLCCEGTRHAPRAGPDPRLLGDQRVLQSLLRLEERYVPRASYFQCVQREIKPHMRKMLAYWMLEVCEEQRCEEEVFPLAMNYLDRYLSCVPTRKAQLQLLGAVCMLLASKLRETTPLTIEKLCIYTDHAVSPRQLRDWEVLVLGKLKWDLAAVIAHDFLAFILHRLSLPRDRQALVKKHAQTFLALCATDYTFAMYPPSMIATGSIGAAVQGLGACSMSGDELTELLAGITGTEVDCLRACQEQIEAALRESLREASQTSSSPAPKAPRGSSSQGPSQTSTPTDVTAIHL
# Chain of unphosphorylated VEGF-R2Δ50 (FLVK) (P35968 with tags, fused parts or gaps DEL940-989/E990V limits assumed): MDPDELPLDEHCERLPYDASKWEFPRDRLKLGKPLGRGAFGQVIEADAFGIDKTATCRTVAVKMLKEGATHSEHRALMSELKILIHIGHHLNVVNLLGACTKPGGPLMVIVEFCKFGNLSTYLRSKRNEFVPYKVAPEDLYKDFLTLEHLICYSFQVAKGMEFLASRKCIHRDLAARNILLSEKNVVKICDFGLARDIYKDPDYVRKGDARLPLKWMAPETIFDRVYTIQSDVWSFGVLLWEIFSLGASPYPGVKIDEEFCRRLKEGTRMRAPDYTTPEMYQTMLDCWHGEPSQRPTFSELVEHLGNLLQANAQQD
# Chain of CDK1 (P06493 whole entry, species assumed, the tested form may be a part): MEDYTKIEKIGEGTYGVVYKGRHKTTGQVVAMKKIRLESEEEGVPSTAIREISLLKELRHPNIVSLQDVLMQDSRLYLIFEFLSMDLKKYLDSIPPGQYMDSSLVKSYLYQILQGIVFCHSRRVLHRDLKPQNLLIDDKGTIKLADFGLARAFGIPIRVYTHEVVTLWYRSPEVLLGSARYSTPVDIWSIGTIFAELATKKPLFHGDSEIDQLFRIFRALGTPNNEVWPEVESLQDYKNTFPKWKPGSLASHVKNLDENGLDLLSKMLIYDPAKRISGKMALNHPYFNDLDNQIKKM
# Chain of CDK1 (P14635 whole entry partner, species assumed, the tested form may be a part): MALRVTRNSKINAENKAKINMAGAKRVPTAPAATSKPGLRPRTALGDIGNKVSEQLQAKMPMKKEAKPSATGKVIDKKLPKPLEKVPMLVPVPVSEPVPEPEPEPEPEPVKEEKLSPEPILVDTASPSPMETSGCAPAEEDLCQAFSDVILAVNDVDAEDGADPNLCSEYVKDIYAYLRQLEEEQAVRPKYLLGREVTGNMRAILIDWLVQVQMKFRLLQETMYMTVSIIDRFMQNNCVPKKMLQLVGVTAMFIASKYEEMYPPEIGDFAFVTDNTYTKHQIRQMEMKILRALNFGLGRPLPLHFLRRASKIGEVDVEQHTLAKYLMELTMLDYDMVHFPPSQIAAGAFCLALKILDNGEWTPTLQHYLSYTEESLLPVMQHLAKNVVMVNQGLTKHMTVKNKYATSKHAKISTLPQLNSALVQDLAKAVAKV
# Chain of human FGF-R1 (P11362 456-766 L457V/C488A/C584S): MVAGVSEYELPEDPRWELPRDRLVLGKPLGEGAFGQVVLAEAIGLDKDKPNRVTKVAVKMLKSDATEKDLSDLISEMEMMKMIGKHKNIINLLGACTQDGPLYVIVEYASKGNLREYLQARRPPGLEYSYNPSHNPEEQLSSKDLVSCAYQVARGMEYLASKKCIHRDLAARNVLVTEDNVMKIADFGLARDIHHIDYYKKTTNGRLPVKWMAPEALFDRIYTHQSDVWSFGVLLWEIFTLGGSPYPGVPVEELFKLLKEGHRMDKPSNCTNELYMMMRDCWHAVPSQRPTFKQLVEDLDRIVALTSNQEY
structure (smiles),measurement,setting,value
"COc1cccc(/C=C/c2n[nH]c3cc(-c4ccncc4)ccc23)c1 [Example 29(e), 6-Pyrid-4-yl-3-E-[2-(3-methoxyphenyl)ethenyl]-1H-indazole]",Ki,human CHK1 (FL-CHK1),74 nM
same,Ki,CDK2/Cyclin A,1400 nM
same,Ki,CDK1,593 nM
same,Ki,CDK4/Cyclin D3 complex,2000 nM
"Fc1cccc(/C=C/c2n[nH]c3cc(-c4ccncc4)ccc23)c1 [Example 29(g), 6-Pyrid-4-yl-3-E-[2-(3-fluorophenyl)ethenyl]-1H-indazole]",Ki,human CHK1 (FL-CHK1),68 nM
same,Ki,CDK2/Cyclin A,1400 nM
same,Ki,CDK1,390 nM
same,Ki,CDK4/Cyclin D3 complex,1100 nM
"Fc1ccccc1/C=C/c1n[nH]c2cc(-c3ccncc3)ccc12 [Example 29(h), 6-Pyrid-4-yl-3-E-[2-(2-fluorophenyl)ethenyl]-1H-indazole]",Ki,human CHK1 (FL-CHK1),140 nM
same,Ki,CDK2/Cyclin A,3000 nM
same,Ki,CDK1,1300 nM
same,Ki,CDK4/Cyclin D3 complex,2200 nM
"C(=C\c1n[nH]c2cc(-c3ccncc3)ccc12)/c1ccc2c(c1)OCO2 [Example 29(r), 6-Pyrid-4-yl-3-E-[2-(3,4-methylenedioxyphenyl)ethenyl]-1H-indazole]",Ki,human CHK1 (FL-CHK1),72 nM
same,Ki,CDK2/Cyclin A,1300 nM
same,Ki,CDK1,66 nM
same,Ki,CDK4/Cyclin D3 complex,1100 nM
"CS(=O)(=O)c1ccc(C(=O)Nc2cccc(Oc3ccc4c(/C=C/c5ccccn5)n[nH]c4c3)c2)s1 [Example 31(c), 6-[3-((5-Methylsulfonylthien-2-yl)carboxanido)phenoxy]-3-E-[2-(pyridin-2-yl)ethenyl]-1H-indazole]","% remain (HLM, 2 h)",[1],87%
same,Initial Evaluation,[2],+/++ var
same,Ki,[3],< 0.1 nM
"CCn1nc(C)cc1C(=O)Nc1cccc(Oc2ccc3c(/C=C/c4ccccn4)n[nH]c3c2)c1 [Example 31(d), 6-[3-((1-Ethyl-3-methyl-1H-pyrazol-5-yl)carboxamido)phenoxy]-3-E-[2-(pyridin-2-yl)ethenyl]-1H-indazole]","% remain (HLM, 2 h)",[1],110%
same,AUClast,[4]; [7],237784 ng·h/mL
same,Cmax,[4]; [7],64184 ng/mL
same,plasma half-life (T1/2),[4]; [7],5.3 h
same,AUClast,[4]; [8],49120 ng·h/mL
same,Cmax,[4]; [8],9740 ng/mL
same,plasma half-life (T1/2),[4]; [8],3.1 h
same,AUClast,[4]; [9],203860 ng·h/mL
same,Cmax,[4]; [9],50810 ng/mL
same,plasma half-life (T1/2),[4]; [9],1.9 h
same,AUClast,[4]; [10],430683 ng·h/mL
same,Cmax,[4]; [10],76915 ng/mL
same,plasma half-life (T1/2),[4]; [10],39.3 h
same,concentration at 7 h,[4]; [11],15100 ng/mL
same,concentration at 7 hr,"[4]; female, PO, 10 mg/kg, vehicle PEG400:H2O pH 2.3 30:70, read-out: Cmin (7 hr conc.)",2020 ng/mL
same,concentration at 7 h,[4]; [12],3800 ng/mL
same,concentration at 7 h,[4]; [13],42500 ng/mL
same,Ki,human FGF-R1,14 nM
same,% inhibition,[2],12%
"CCONC(=O)c1ccccc1Sc1ccc2c(/C=C/c3ccccn3)n[nH]c2c1 [Example 35(dd), 6-[2-(Ethoxycarbamoyl)phenylsulfanyl]-3-E-[2-(pyridin-2-yl)ethenyl]-1H-indazole]","% remain (HLM, 2 h)",[1],26%
same,Ki,human FGF-R1,75 nM
same,Initial Evaluation,[2],++/+++ var
same,Ki,[3],0.6 nM
"C=CCONC(=O)c1ccccc1Sc1ccc2c(/C=C/c3ccccn3)n[nH]c2c1 [Example 35(j), 6-[2-(Allyloxycarbamoyl)phenylsulfanyl]-3-E-[2-(pyridin-2-yl)ethenyl]-1H-indazole]",IC50,[5],1.5 nM
same,"% remain (HLM, 2 h)",[1],5%
same,AUClast,[4]; [7],9531 ng·h/mL
same,plasma half-life (T1/2),[4]; [7],1.3 h
same,AUClast,[4]; [10],1328 ng·h/mL
same,plasma half-life (T1/2),[4]; [10],4.5 h
same,concentration at 7 h,[4]; [11],52 ng/mL
same,concentration at 7 h,[4]; [13],5 ng/mL
same,% inhibition,[2],7%
same,inhibition at 0.05 µM,[3]; read-out: FLVK % inhibition,99%
"O=C(c1cccc(NC(=O)c2cccc3[nH]ccc23)c1)c1ccc2c(/C=C/c3ccccn3)n[nH]c2c1 [Example 41(d), 6-[3-(Indol-4-ylcarboxamido)benzoyl]-3-E-[2-(pyridin-2-yl)ethenyl]-1H-indazole]",AUClast,[4]; [14],10324 ng·h/mL
same,plasma half-life (T1/2),[4]; [14],2.8 h
same,AUClast,[4]; [15],7072 ng·h/mL
same,plasma half-life (T1/2),[4]; [15],1.5 h
same,concentration at 7 h,"[4]; female, IP, 25 mg/kg, vehicle PEG400:H2O pH 2.3 60:40, read-out: Cmin (7 hr conc.)",573 ng/mL
same,concentration at 7 h,"[4]; female, PO, 50 mg/kg, vehicle PEG400:H2O pH 2.3 60:40, read-out: Cmin (7 hr conc.)",150 ng/mL
same,% inhibition,[6],0%
same,Ki,[3],0.093 nM
"CCn1nc(C)cc1C(=O)Nc1cc(C(=O)c2ccc3c(/C=C/c4ccccn4)n[nH]c3c2)ccc1C [Example 41(ee), 6-[3-((1-Ethyl-3-methyl-1H-pyrazol-5-yl)carboxanido)-4-methylbenzoyl]-3-E-[2-(pyridin-2-yl)ethenyl]-1H-indazole]","% remain (HLM, 2 h)",[1],47%
same,plasma half-life (T1/2),[4]; [7],4.0 h
same,plasma half-life (T1/2),[4]; [10],3.4 h
same,AUC(0-t),[4]; [16],> 28400 ng·h/mL
same,concentration at 7 h,[4]; [11],1670 ng/mL
same,AUC(0-t),[4]; [17],> 25300 ng·h/mL
same,concentration at 7 h,[4]; [13],1210 ng/mL
same,Initial Evaluation,[2],+/++ var
same,Ki,[3],0.13 nM
"Cc1cc(C(=O)Nc2cc(C(=O)c3ccc4c(/C=C/c5ccccn5)n[nH]c4c3)c(C)cc2C)n(C)n1 [Example 41(mm), 6-[2,4-Dimethyl-5-((1,3-dimethyl-1H-pyrazol-5-yl)carboxamido)benzoyl]-3-E-[2-(pyridin-2-yl)ethenyl]-1H-indazole]","% remain (HLM, 2 h)",[1],94%
same,AUClast,[4]; [9],2261 ng·h/mL
same,Cmax,[4]; [9],852 ng/mL
same,plasma half-life (T1/2),[4]; [9],2.5 h
same,concentration at 7 h,[4]; [12],127 ng/mL
same,Initial Evaluation,[2],+ (one plus being detectable regression judged to be approximately 25 percent or less)
"CCCn1nc(C)cc1C(=O)Nc1cccc(C(=O)c2ccc3c(/C=C/c4ccccn4)n[nH]c3c2)c1 [Example 41(r), 6-[3-((1-n-Propyl-3-methyl-1H-pyrazol-5-yl)carboxamido)benzoyl]-3-E-[2-(pyridin-2-yl)ethenyl]-1H-indazole]","% remain (HLM, 2 h)",[1],83%
same,AUC(0-t),[4]; [16],> 23800 ng·h/mL
same,Cmax,"[4]; female, IP, 25 mg/kg, vehicle PEG400:H2O pH 2.3 30:70, read-out: Cmax",> 5000 ng/mL
same,concentration at 7 h,[4]; [11],> 5000 ng/mL
same,AUC(0-t),[4]; [17],> 17800 ng·h/mL
same,Cmax,"[4]; female, PO, 50 mg/kg, vehicle PEG400:H2O pH 2.3 30:70, read-out: Cmax",> 5000 ng/mL
same,concentration at 7 h,[4]; [13],> 5000 ng/mL
same,Initial Evaluation,[2],+/++ var
"C(=N\n1cccc1)/c1n[nH]c2cc(-c3ccncc3)ccc12 [Example 51, 6-Pyrid-4-yl-3-E-(N-(pyrrol-1-yl)iminomethyl)-1H-indazole]",Ki,human CHK1 (FL-CHK1),87 nM
same,inhibition at 1 µM,CDK2/Cyclin A; compound concentration 1 μM,84%
same,Ki,CDK1,146 nM
same,inhibition at 1 µM,CDK4/Cyclin D3 complex; read-out: CDK4 % inhibition,79%
"O=C(Nc1ccc(O)cc1)c1ccc2c(-c3nc4ccccc4[nH]3)n[nH]c2c1 [Example 53(a), 3-(1H-Benzoidazol-2-yl)-N-(4-hydroxyphenyl)-1H-indazole-6-carboxamide]",Ki,human CHK1 (FL-CHK1),301 nM
same,inhibition at 5 µM,CDK2/Cyclin A; @ 5 μM,13%
same,Ki,CDK1,24000 nM
same,inhibition at 5 µM,CDK4/Cyclin D3 complex; read-out: CDK4 % inhibition,28%
